From a melting point compilation (Tetko et al.; mined from patent text by program, amines drawn as free bases though some values may be those of a salt)

Row | melting point [°C] | Compound
1 | 110 to 111 | O=C(CCC#Cc1ccccn1)Nc1ccc(Cl)cc1
2 | 161 | CCOC(=O)C1=C(C)N2CCCC2=C(C(C)=O)C1c1cccc([N+](=O)[O-])c1 (stereo unspecified)
3 | 229 to 230 | CC(C)n1nc(-c2c(-c3ccccc3)nn3cccc(O)c23)ccc1=O
4 | 144 | N#CC(Nc1ccccc1C(=O)C1CC1)c1c(Cl)cccc1Cl (stereo unspecified)
5 | 225 to 227 | Cc1cn(-c2cc(NC(=O)c3ccc(Cl)c(C#Cc4ccc(NC5CCC5)nn4)c3)cc(C(F)(F)F)c2)cn1
6 | 116 to 118 | CCOC(=O)Cn1cc(-c2ccc(F)cc2)c(-c2ccc(S(C)(=O)=O)cc2)n1
7 | 201 to 204 | CNC(=O)c1[nH]c2ccccc2c1Sc1ccccc1
8 | 135 to 137 | CCc1noc(CC(O)c2ccccc2)c1C(=O)NC (stereo unspecified)
9 | 161 | CCOC(=O)Cc1c(Cl)cnc2c(NC(=O)c3c(Cl)cccc3Cl)cccc12
10 | 234 to 238 | CNC(=O)c1ccc(C=CC(=O)Nc2cccc(-c3ccc(C)c(COc4cccc5ccc(C)nc45)c3C)c2)cc1
11 | 192 | CCN(CC)C(=O)Nc1ccc(S(=O)(=O)N2C(=O)C(NCCCC(N)=O)(c3ccccc3Cl)c3cc(Cl)ccc32)cc1 (stereo unspecified)
12 | 166 to 168 | CCCCc1ncc(C(=O)OC)c(=O)n1Cc1ccc(-c2ccccc2C(=O)O)cc1
13 | 193 to 194 | CN(C)C1N(C)C(=O)NC(=O)N1c1cc(OCc2ccccc2)c(Cl)cc1F (stereo unspecified)
14 | 127 to 128 | COC(=O)CNC(=O)c1ccc(-c2ccccc2)cc1
15 | 70 to 72 | O=Cc1ccc(-c2ccccc2)c(Cl)c1
16 | 122 to 124 | Cc1cccc(-c2nc3cccnn3c2-c2ccnc(NC(=O)N3CCc4ccccc4C3)c2)c1
17 | 163 to 165 | COC(=O)c1ccccc1S(=O)(=O)N1CCC[C@H]1C(=O)N[C@@H](Cc1ccccc1)C(=O)O
18 | 147 to 148 | Cc1cc(-c2cc(O)c(SCCc3ccccc3)c(=O)o2)ccc1OCc1ccccc1
19 | 132 | CN1CCCC(Cn2cc(-c3ccccc3)c(O)n2)C1 (stereo unspecified)
20 | 124 to 125 | CC(C)(C)[C@H]1CC[C@H](Nc2ncc(CCc3cccnc3)c3ccccc23)CC1
21 | 95 to 97 | COC(=O)Cn1c(Cc2ccccc2)ccc(NC(=O)CCc2ccccc2)c1=O

Row | melting point [°C] | Compound
22 | 112 to 115 | CN(C)CCc1[nH]c2ccc(Br)cc2c1CSc1ccccc1
23 | 147 to 148 | COCCOCc1ccc(-c2ccc(C(=O)Nc3ccc(OC)c(N4CCN(C)CC4)c3)cc2)c(C)c1
24 | 125 | CCC(=O)OC(C)c1ccc(-c2ccc(OCc3ccccc3)cc2)cc1 (single isomer, unassigned; (+))
25 | 169 to 170 | CN(C)CCNC(=O)Cc1ccc(NC(=O)C2CCN(C(=O)OCc3ccccc3)CC2)cc1
26 | 68 to 78 | COc1ccc2c(C(=O)c3ccc(OC4CCCCC4n4ccnc4)cc3)c(-c3ccc(OCCN4CCCC4)cc3)sc2c1 (stereo unspecified)
27 | 137 | Nc1cc(C(=O)c2cc3ccccc3o2)ccc1Cl
28 | 180 to 182 | CCCCCCCCCCOc1cc2oc3c(C(=O)O)cccc3c(=O)c2cc1CCC(=O)O
29 | 180 to 183 | CC(N)C(=O)NC(Cc1ccccc1)C(=O)NCC(=O)Oc1c(Cl)c(Cl)c(Cl)c(Cl)c1Cl (stereo unspecified)
30 | 120 to 121 | CCOc1nn(Cc2ccc(OCc3cccnc3)cc2)cc1CCC(=O)O
31 | 150 | CCCCCCCCCCCCOCCCNC(=O)c1cc(OCC(=O)O)c2ccccc2c1O
32 | 166 to 171 | CC(C)CC(C)(C(=O)NC1CCCCCCCCCCNC1=O)c1ccccc1S (stereo unspecified)
33 | 228 to 230 | COC(=O)C1=C(C)NC(C)=C(C(=O)N2CCC3(CC2)CC(=O)N(OC)C3=O)C1c1cccc([N+](=O)[O-])c1 (stereo unspecified)
34 | 81 to 82 | CCCCOCCOc1ccc(-c2ccc(N3CCCC3)c(C(C)=CC(=O)OCC)c2)cc1
35 | 127 to 129 | CCCCC1C(C(=O)/C=C/c2ccc(OC)cc2)C(=O)CC(c2ccc(OC)cc2)C1[N+](=O)[O-] (stereo unspecified)
36 | 149 to 150 | CCOC(=O)c1c(-c2ccc(OC)cc2)n2c3c(cccc13)OC(CCN1CCN(c3cc(C)ccn3)CC1)C2 (stereo unspecified)
37 | 116 to 118 | COC(=O)C1CCC(n2ccn(-c3ccc4c(c3)CCC(C#N)C4)c2=O)CC1 (stereo unspecified)
38 | 100 to 102 | C#CC[C@H](c1nc2cccnc2c(=O)n1Nc1ccccc1)N(CCCNC(=O)OCc1ccccc1)C(=O)c1cccc(Cl)c1F
39 | 140 to 142 | CN(C)c1ccc(N=Nc2ccccc2C(=O)NCCNC(=O)CI)cc1
40 | 78 to 84 | CCCCc1oc2ccccc2c1C(=O)N(CC)Cc1ccc2cc(OCc3nnn[nH]3)ccc2c1
41 | 77 to 81 | CC(C)(C)OC(=O)CNC(=O)CC(c1ccccc1)c1ccccc1

The remaining lines, values behind:

Row | Compound | melting point [°C]
42 | CCCCCCc1ccc2c(c1)c1cc(CCCCCC)ccc1n2CCN | 56
43 | O=[N+]([O-])c1ccc2nc(-c3ccco3)[nH]c2c1 | 228 to 229
44 | N#CC(OC1OC2C(Br)C3CC1C2C3)c1cccc(Oc2ccccc2)c1 (stereo unspecified) | 65
45 | O=S(=O)(c1ccccc1)c1ncc(Cl)cn1 | 103
46 | COc1ccc(C2c3ccccc3C(c3ccc4c(c3)OCO4)C2c2nnn[nH]2)cc1 (stereo unspecified) | 155 to 157
47 | Cn1nc2c(N)nc3c(c2c1CCCCNC(=O)N1CCOCC1)CCCC3 | 95
48 | Clc1cc(-c2ccc3c(c2)CCO3)nc2ccccc12 | 130 to 132
49 | O=C1c2c(-c3ccc(Cl)cc3)noc2CCC1CCCN1CCN(C(c2ccc(F)cc2)c2ccc(F)cc2)CC1 (stereo unspecified) | 150 to 152
50 | COc1ccc(O)c(C2(OC)Sc3ccccc3N(C)C2=O)c1 (stereo unspecified) | 135 to 136
51 | COc1cc2c(cc1Br)CC(SC)=NN=C2c1ccc([N+](=O)[O-])cc1 | 225 to 227
52 | CCCc1cc2c(=O)cc(C(=O)O)[nH]c2cc1OCCCOc1c(CCC)cc(C(C)=O)c(O)c1CCC | 128 to 131
53 | O=C1O[C@H](O)[C@@H]2[C@H]1[C@@H]1C=C[C@H]2C1 | 133
54 | O=[N+]([O-])c1cc(C(F)(F)C(F)(F)C(F)(F)/C=C/C(F)(F)C(F)(F)C(F)(F)c2ccc(O)c([N+](=O)[O-])c2)ccc1O | 122 to 123
55 | N#Cc1cccc(S)c1 | 91 to 95
56 | CNC(=O)c1ccc(-c2coc3ccc(-c4nnc(C)o4)cc23)cc1F | 183 to 184
57 | CC1=NN(C(=O)NS(=O)(=O)N(C)S(=O)(=O)N(C)C)C(c2cccs2)C1 (stereo unspecified) | 112 to 113
58 | CCS(=O)(=O)c1ccccc1S(N)(=O)=O | 179 to 181
59 | CS(=O)(=O)c1ccc(/C=C/c2cc(/C=C/c3ccc4cc[nH]c4c3)n[nH]2)cc1 | 260 to 268
60 | COC(=O)c1sc(C)cc1N1N=C2c3cc(C)sc3SCC2CC1=O (stereo unspecified) | 164 to 166
61 | CC1CNc2cccc3c(=O)c(C(=O)O)cn1c23 (stereo unspecified) | > 250
62 | Nc1cc2n(n1)CCOC2 | 74 to 76
63 | C=CCOc1cccc2oc(C=CC(=O)OCC)c(C)c12 | 79 to 80
64 | CC1(C)Oc2cc3nonc3cc2C(NC(=O)NCCCl)C1O (stereo unspecified) | 178 to 180
65 | COC(=O)C1=C(C)NC(C)=C(C(=O)OC)C1c1cc([N+](=O)[O-])ccc1OC/C=C/CCl | 206 to 207
66 | CC(C)c1cc(C(C)C)c2sc3ccccc3c(=O)c2c1 | 74 to 76
67 | COc1ccc(-c2cc(-c3ccc(OC)c(OC)c3)c(C#N)c(C)n2)cc1 | 187 to 188
68 | CN1CC(CN)Oc2c(-c3cccc(Cl)c3)cccc21 (stereo unspecified) | 134
69 | CC(C)OC(=O)c1cc(-c2nn(C)c(C(F)(F)F)c2C=O)c(F)cc1Cl | 90

Row | Compound | melting point [°C]
70 | Fc1ccc(Nc2nc(OCC3CCCCC3)c3[nH]cnc3n2)cc1Cl | 225 to 226
71 | Cc1nc(OC(C)C(=O)O)nn1-c1cccc(Cl)c1 (stereo unspecified) | 101 to 103
72 | CC(=O)NCC1CC(c2cc(F)c(-n3ccnc3)c(F)c2)=NO1 (single isomer, unassigned; (-)) | 168 to 169
73 | CCOC(=O)CCc1cn(-c2ccc(Cl)cn2)nc1C(C)C | 70 to 71
74 | CN(C)C(=O)c1cc(C(C)(C)C)c(O)c(C(C)(C)C)c1 | 173 to 174
75 | Cc1ccc(Oc2cccc(-c3nnc(Nc4ccc(Cl)c(Cl)c4)s3)c2)cc1 | 210 to 211
76 | CCOC(=O)Nc1cc(COC(=O)Nc2ccc(N(CCCl)CCCl)cc2)cc(Nc2c3ccccc3nc3ccccc23)c1 | 178 to 182
77 | C(#Cc1cccnc1)C1=CCN(Cc2c[nH]c3ncccc23)CC1 | 170 to 172
78 | OCCCCCCCCCCCOc1ccccc1 | 56 to 58
79 | C[C@@H](n1cnn(-c2ccc(OC(F)(F)C(F)F)cc2)c1=O)[C@@]1(c2ccc(F)cc2F)CO1 | 105 to 106
80 | CCCn1nc2c(N)nc3ncccc3c2c1CC(C)(C)C(N)=O | 254 to 257
81 | COc1ccc(CNc2nnc(Cl)c3cc(Cl)c(Cl)cc23)cc1Cl | 208 to 209
82 | COc1ccc(-c2cn(O)c(=S)[nH]2)cc1 | 160
83 | Cc1ccc(C(=O)c2c(C)cc(C)cc2OCC(O)CNC(C)C)cc1 (stereo unspecified) | 89 to 91
84 | C=CCOc1cc(CNc2nc(C)nc(C)c2Cl)ccc1O | 124 to 126
85 | COC(=C(C)C#N)C(F)(F)F | 68 to 76.5
86 | CC(=S)NCC1CC(c2ccc(-n3cccc3)c(F)c2)=NO1 (single isomer, unassigned; (-)) | 152 to 153
87 | COc1ccc(N=Nc2ccc(O)c(C(N)=O)c2)cc1 | 231 to 233
88 | CCOC(=O)c1cc(CC)sc1Nc1ccc(N)cc1N | 152 to 155
89 | COCCOc1cc(N)c(Cl)cc1C(=O)NCC12CCCN(CCC1)C2 | 154 to 156
90 | CCCc1nc2c(N)nc3ccccc3c2n1CC(N)=O | > 300
91 | CC(=O)Nc1cc(-c2c(-c3cccc(C)c3)nc3cccnn23)ccn1 | 227 to 228
92 | Fc1cc(Cl)ccc1-n1nc2c(c1Br)CCC2 | 106 to 110
93 | CC1CCn2c(nc(-c3ccncn3)cc2=O)N1 (stereo unspecified) | 199 to 201
94 | CCOC(=O)CC1c2cc(C(F)(F)F)ccc2C(=O)N1CC(F)(F)F (racemic) | 54.5 to 55.5
95 | COc1cc2cc[nH]c2cc1OCCCCl | 73 to 75
96 | O=c1[nH]c2ncccc2c(=O)n1CCCCCCn1c(=O)[nH]c2ncccc2c1=O | 324 to 328
